Measured values reported in US4239778A, “Azaprostanoic acid analogs and their use as inhibitors of platelet aggregation” (priority 1978, dated 1980).

Experiments:
[1] = biological target: T1, prostaglandin synthetase (cyclooxygenase) (Bos taurus, UniProt O62664); test: Inhibition of prostaglandin synthetase (cyclooxygenase): arachidonic acid-dependent formation of adrenochrome from L-epinephrine; assay type: biochemical, bovine (seminal vesicles); details: for inhibition of cyclooxygenase (in words) / inhibition at 500 µM: 5×10^-4 M; for inhibition at 500 µM: read-out: inhibitory activity on cyclooxygenase
T1 construct: adrenochrome assay with arachidonic acid
T1 sequence (O62664 25-600): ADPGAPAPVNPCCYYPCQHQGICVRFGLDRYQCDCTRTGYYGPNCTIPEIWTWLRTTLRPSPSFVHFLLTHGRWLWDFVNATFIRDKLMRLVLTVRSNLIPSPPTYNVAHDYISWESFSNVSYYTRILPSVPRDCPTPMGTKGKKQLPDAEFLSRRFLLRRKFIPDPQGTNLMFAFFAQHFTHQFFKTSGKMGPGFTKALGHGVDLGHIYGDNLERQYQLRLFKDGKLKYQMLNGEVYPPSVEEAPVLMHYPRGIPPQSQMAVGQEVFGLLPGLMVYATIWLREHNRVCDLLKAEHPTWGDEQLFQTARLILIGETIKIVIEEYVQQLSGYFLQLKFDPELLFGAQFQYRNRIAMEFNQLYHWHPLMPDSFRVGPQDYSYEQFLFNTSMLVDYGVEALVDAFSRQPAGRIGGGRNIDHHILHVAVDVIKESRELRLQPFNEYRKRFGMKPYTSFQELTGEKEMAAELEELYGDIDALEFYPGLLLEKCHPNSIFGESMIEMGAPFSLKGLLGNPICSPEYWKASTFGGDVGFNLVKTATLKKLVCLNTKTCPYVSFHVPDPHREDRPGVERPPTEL
Description: A representative sample of the 13-azaprostanoic acid derivatives, and cis-15-azaprostanoic acid were tested for their effect as inhibitors of prostaglandin synthetase (cyclooxygenase). The basis of the assay is the measurement of the arachidonic acid-dependent formation of adrenochrome from L-peinephrine during prostaglandin biosynthesis [See, generally, the procedure of Takaguchi, et al., Prostaglandins, 2, 169 (1972)].
In order to check the possibility that the compounds might be inhibitors of the cyclooxygenase enzyme, they were tested in a standard prostaglandin biosynthesis assay according to the method of Takagushi, et al., Prostaglandins, 2, 169 (1972). The basis of the assay is the measurement of the arachidonic acid-dependent formation of adrenochrome from L-epinephrine during prostaglandin biosynthesis. Although the assay is an indirect measurement of cyclooxygenase activity, it offers the advantage that total enzyme activity is measured and is not limited to the measurement of any one product of the biotransformation.

[2] = test system: platelets (human platelet rich plasma); test: ADP-induced primary (reversible) platelet aggregation; assay type: cell-based; details: 100 μM, 2 min. pretreatment; 10 μM ADP
Excerpt: No effect was observed on the ADP-induced primary aggregation of platelets.

platelets (human PRP) = test: Arachidonic acid-induced platelet aggregation (method of Born); assay type: cell-based; details: for inhibition of arachidonic acid-induced platelet aggregation (in words): 10 μM inhibitor; for inhibition at 10 µM: Homo sapiens, Platelet, human PRP
Description: The effect of various azaprostanoic acids of the invention on arachidonic acid-induced platelet aggregation was determined according to the method of Born, Nature, 194, 927 (1962). At a concentration of 10 μM, trans-13-azaprostanoic acid, and cis-15-azaprostanoic acid, inhibit aggregation 100% and 91%, respectively in response to 300 μM arachidonare. Both the cis and trans-13-aza-20-homoprostanoic acid analogs show significant inhibitory activity, 50% and 71%, respectively.
The relative inhibitory activities of the azaprostanoic acids were determined by varying the concentration of arachidonic acid while keeping the inhibitor concentration constant.

thromboxane synthetase = details: cited from earlier work
ADP-induced aggregation = details: vs PGE1; cited from earlier work
platelet rich plasma = test: Platelet aggregation with 500 μM arachidonic acid (Table IV); assay type: cell-based; details: indomethacin 20 μM
Description: Platelet rich plasma was aggregated with 500 μM arachidonic acid and three minutes following arachidonate addition, aliquots of the plasma were drawn for TXB2 determinations.

cyclooxygenase = details: cited from earlier work
[3] = 10^-5 M (10 μM) inhibitor, 300 μM arachidonate
[4] = 10^-5 M inhibitor, 400 μM arachidonate
[5] = 10^-5 M inhibitor, 500 μM arachidonate

Question: For `O=C(O)CCCCCC[C@@H]1CCC[C@H]1NCc1ccccc1` (relative stereo) [Example 3 trans], which “inhibition of cyclooxygenase (in words)” value [1] is on record?
Answer: did not significantly inhibit

Question: And the “effect on ADP-induced primary aggregation” value (“effect” below) [2]?
Answer: did not alter reversible, primary phase aggregation

Question: And the “inhibition of arachidonic acid-induced platelet aggregation (in words)” value (platelets (human PRP))?
Answer: inactive

Question: And the inhibition at 10 µM (platelets (human PRP); [3])?
Answer: 0%

Question: What about the inhibition at 10 µM (platelets (human PRP); [4]) of the same compound?
Answer: 0%

Question: And the inhibition at 10 µM (platelets (human PRP); [5])?
Answer: 0%

Question: For `CCCCCCCN[C@H]1CCC[C@H]1CCCCCCC(=O)O` (relative stereo) [Example 4 cis, cis-13-Azaprostanoic acid], which “inhibition of cyclooxygenase (in words)” value [1] is on record?
Answer: did not significantly inhibit

Question: What about the “effect” value [2] of the same compound?
Answer: did not alter reversible, primary phase aggregation

Question: And the inhibition at 10 µM (platelets (human PRP); [3])?
Answer: 43%

Question: What about the inhibition at 10 µM (platelets (human PRP); [4]) of the same compound?
Answer: 11%

Question: And the inhibition at 10 µM (platelets (human PRP); [5])?
Answer: 0%

Question: With `CCCCCCN[C@@H]1CCC[C@H]1CCCCCCC(=O)O` (relative stereo) [Example 5 trans, trans-13-aza-20-norprostanoic acid] as the compound, how does the “inhibition of cyclooxygenase (in words)” value [1] read?
Answer: did not significantly inhibit

Question: What about the inhibition at 10 µM (platelets (human PRP); [3]) of the same compound?
Answer: 14%

Question: And the inhibition at 10 µM (platelets (human PRP); [4])?
Answer: 0%

Question: And the inhibition at 10 µM (platelets (human PRP); [5])?
Answer: 0%

Question: Which inhibition at 500 µM [1] does the source give for `CCCCCCCCN[C@H]1CCC[C@H]1CCCCCCC(=O)O` (relative stereo) [Example 6 cis, cis-13-Aza-20-homoprostanoic acid] here?
Answer: ~30%

Question: And the inhibition at 10 µM (platelets (human PRP); [3])?
Answer: 50%

Question: And the inhibition at 10 µM (platelets (human PRP); [4])?
Answer: 11%

Question: What about the inhibition at 10 µM (platelets (human PRP); [5]) of the same compound?
Answer: 0%

Question: With `CCCCCCCCN[C@@H]1CCC[C@H]1CCCCCCC(=O)O` (relative stereo) [Example 6 trans, trans-13-aza-20-homoprostanoic acid] as the compound, how does the inhibition at 500 µM [1] read?
Answer: ~30%

Question: And the inhibition at 10 µM (platelets (human PRP); [3])?
Answer: 71%

Question: And the inhibition at 10 µM (platelets (human PRP); [4])?
Answer: 7%

Question: And the inhibition at 10 µM (platelets (human PRP); [5])?
Answer: 0%

Question: Which “effect” value [2] does the source give for `CCCCCNCC[C@H]1CCC[C@H]1CCCCCCC(=O)O` (relative stereo) [Example 8 cis, 15-Azaprostanoic acid] here?
Answer: did not alter reversible, primary phase aggregation

Question: And the inhibition at 10 µM (platelets (human PRP); [3])?
Answer: 91%

Question: What about the inhibition at 10 µM (platelets (human PRP); [4]) of the same compound?
Answer: 16%

Question: And the inhibition at 10 µM (platelets (human PRP); [5])?
Answer: 0%

Question: With `CCCCCCCN[C@@H]1CCC[C@@H]1CCCCCCC(=O)O` (relative stereo) [cis-13-aza] as the compound, how does the “inhibition of arachidonic acid-induced platelet aggregation (in words)” value (platelets (human PRP)) read?
Answer: inactive

Question: Which “inhibition of thromboxane synthetase (in words)” value (thromboxane synthetase) does the source give for `CN(C)CCCOc1nn(Cc2ccccc2)c2ccccc12` [Benzydamine] here?
Answer: more than twice as effective in inhibiting thromboxane synthetase than in inhibiting prostaglandin biosynthesis (cyclooxygenase)

Question: With `CCCCCC[C@H](O)/C=C/[C@H]1[C@H](O)CC(=O)[C@@H]1CCCCCCC(=O)O` [Example 20-homo-PGE1, 20-homo-PGE1] as the compound, how does the “potency relative to PGE1 as inhibitor of ADP-induced aggregation” value (ADP-induced aggregation) read?
Answer: 3.82 times

Question: Which “potency relative to PGE1 as inhibitor of ADP-induced aggregation (in words)” value (ADP-induced aggregation) does the source give for `CCCC[C@H](O)/C=C/[C@H]1[C@H](O)CC(=O)[C@@H]1CCCCCCC(=O)O` [Example 20-nor-PGE1, 20-nor-PGE1] here?
Answer: only half as potent as PGE1

Question: With `COc1ccc2c(c1)c(CC(=O)O)c(C)n2C(=O)c1ccc(Cl)cc1` [indomethacin, reference compound] as the compound, how does the “inhibition of prostaglandin biosynthesis (in words)” value ([1]; indomethacin 2×10^-5 M) read?
Answer: completely inhibited

Question: What about the inhibition at 20 µM ([1]; read-out: inhibition of enzyme activity) of the same compound?
Answer: 100%

Question: What about the “inhibition of aggregation (in words)” value (platelet rich plasma) of the same compound?
Answer: totally blocks aggregation

Question: And the “inhibition of prostaglandin biosynthesis / cyclooxygenase (in words)” value (cyclooxygenase)?
Answer: inhibit prostaglandin biosynthesis by blocking the conversion of substrate fatty acids to endoperoxides
